Results as given in patent publication US10758534B2 (Vertex Pharmaceuticals Incorporated, priority 2014, dated 2020).

target: T1, F508del (Homo sapiens, UniProt P13569, DEL508-508); assay: Protocol 1: membrane potential optical assay (FLIPR III, voltage sensing dye), identification of potentiator compounds; format: cell-based; settings: Table 3, compounds of Table 1
T1 construct: expressed in transfected cells
How it was run: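 NIH3T3 F508del cells, 27° C × 24 hrs; compound/DMSO pretreat → redistribution dye load → single forskolin addition with Cl⁻ gradient (gluconate-substituted bath, HEPES pH 7.4). FLIPR III membrane-potential fluorescence read.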

T1 sequence (P13569 with tags, fused parts or gaps DEL508-508): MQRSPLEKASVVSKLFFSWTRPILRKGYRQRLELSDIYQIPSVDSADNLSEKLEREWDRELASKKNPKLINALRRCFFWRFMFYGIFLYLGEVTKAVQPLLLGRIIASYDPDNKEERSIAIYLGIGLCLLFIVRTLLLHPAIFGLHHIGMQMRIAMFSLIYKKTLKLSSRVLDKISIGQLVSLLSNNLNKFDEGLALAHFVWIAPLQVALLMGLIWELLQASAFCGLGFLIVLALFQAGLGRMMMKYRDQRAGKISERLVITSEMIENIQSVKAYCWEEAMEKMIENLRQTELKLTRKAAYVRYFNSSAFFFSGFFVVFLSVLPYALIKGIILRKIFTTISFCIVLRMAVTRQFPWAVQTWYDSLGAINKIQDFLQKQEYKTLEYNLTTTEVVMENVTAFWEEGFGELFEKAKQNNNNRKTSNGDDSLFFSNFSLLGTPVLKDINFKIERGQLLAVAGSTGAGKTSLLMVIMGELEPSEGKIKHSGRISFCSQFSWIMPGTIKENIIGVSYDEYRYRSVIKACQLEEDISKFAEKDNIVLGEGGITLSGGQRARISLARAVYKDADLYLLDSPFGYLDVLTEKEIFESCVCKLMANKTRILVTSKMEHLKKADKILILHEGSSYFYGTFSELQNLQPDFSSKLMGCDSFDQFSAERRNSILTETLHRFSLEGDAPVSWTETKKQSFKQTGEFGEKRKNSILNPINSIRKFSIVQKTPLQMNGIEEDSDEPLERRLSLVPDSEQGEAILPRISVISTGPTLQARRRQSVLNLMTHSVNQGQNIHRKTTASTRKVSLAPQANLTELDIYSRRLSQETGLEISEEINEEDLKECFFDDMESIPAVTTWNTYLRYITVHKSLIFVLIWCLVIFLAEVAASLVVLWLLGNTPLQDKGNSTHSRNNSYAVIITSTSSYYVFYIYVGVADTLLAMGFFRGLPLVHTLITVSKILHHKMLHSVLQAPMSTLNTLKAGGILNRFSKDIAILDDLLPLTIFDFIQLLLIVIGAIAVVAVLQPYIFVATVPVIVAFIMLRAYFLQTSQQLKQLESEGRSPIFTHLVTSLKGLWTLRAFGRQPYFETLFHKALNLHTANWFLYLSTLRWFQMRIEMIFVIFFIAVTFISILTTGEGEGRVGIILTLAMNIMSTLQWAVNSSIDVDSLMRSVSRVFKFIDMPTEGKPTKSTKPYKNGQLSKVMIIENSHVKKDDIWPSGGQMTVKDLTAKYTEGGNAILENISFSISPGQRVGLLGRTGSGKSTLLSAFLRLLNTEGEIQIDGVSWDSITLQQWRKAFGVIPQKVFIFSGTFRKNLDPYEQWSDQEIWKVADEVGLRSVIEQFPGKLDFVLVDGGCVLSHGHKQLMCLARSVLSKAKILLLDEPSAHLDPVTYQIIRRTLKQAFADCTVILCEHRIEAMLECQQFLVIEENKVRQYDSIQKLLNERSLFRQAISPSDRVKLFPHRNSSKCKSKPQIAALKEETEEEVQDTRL

EC30	SMILES
++ (“++” means between 3 uM and 10 uM)	COc1cccc(-c2ccc(C(=O)NS(=O)(=O)c3ccc[nH]c3=O)c(N3C[C@@H](C)CC3(C)C)n2)c1OC [Compound 1786, 6-(2,3-dimethoxyphenyl)-N-[(2-oxo-1H-pyridin-3-yl)sulfonyl]-2-[(4S)-2,2,4-trimethylpyrrolidin-1-yl]pyridine-3-carboxamide]
++ (“++” means between 3 uM and 10 uM)	Cc1cc(-c2ccc(C(=O)NS(=O)(=O)c3cccc(N)n3)c(N3C[C@@H](C)CC3(C)C)n2)cnc1OCCOCCOCCOC(C)C [Compound 1787, N-[(6-amino-2-pyridyl)sulfonyl]-6-[6-[2-[2-(2-isopropoxyethoxy)ethoxy]ethoxy]-5-methyl-3-pyridyl]-2-[(4S)-2,2,4-trimethylpyrrolidin-1-yl]pyridine-3-carboxamide]
+++ (“+++” means <3 uM)	C[C@@H]1CN(c2nc(-c3ccccc3F)ccc2C(=O)NS(=O)(=O)c2cccnc2N)C(C)(C)C1 [Compound 1790, N-[(2-amino-3-pyridyl)sulfonyl]-6-(2-fluorophenyl)-2-[(4S)-2,2,4-trimethylpyrrolidin-1-yl]pyridine-3-carboxamide]
+++ (“+++” means <3 uM)	C[C@@H]1CN(c2nc(-c3cccc(Cl)c3)ccc2C(=O)NS(=O)(=O)c2ccc[nH]c2=O)C(C)(C)C1 [Compound 1791, 6-(3-chlorophenyl)-N-[(2-oxo-1H-pyridin-3-yl)sulfonyl]-2-[(4S)-2,2,4-trimethylpyrrolidin-1-yl]pyridine-3-carboxamide]
+++ (“+++” means <3 uM)	COc1ccc(-c2cnc(N3CC(C)CC3(C)C)c(C(=O)NS(=O)(=O)c3cccc(N)n3)c2)cc1 (stereo not shown) [Compound 1792, N-[(6-amino-2-pyridyl)sulfonyl]-5-(4-methoxyphenyl)-2-(2,2,4-trimethylpyrrolidin-1-yl)pyridine-3-carboxamide]
+++ (“+++” means <3 uM)	C[C@@H]1CN(c2nc(C3CC(C)(C)CCC3=O)ccc2C(=O)NS(=O)(=O)c2cccnc2N)C(C)(C)C1 (stereo partly drawn) [Compound 1793, N-[(2-amino-3-pyridyl)sulfonyl]-6-(5,5-dimethyl-2-oxo-cyclohexyl)-2-[(4S)-2,2,4-trimethylpyrrolidin-1-yl]pyridine-3-carboxamide]
++ (“++” means between 3 uM and 10 uM)	CC1(C)C(CC2CC2)CCN1c1ncccc1C(=O)NS(=O)(=O)c1cccc(N)n1 (stereo not shown) [Compound 1794, N-[(6-amino-2-pyridyl)sulfonyl]-2-[3-(cyclopropylmethyl)-2,2-dimethyl-pyrrolidin-1-yl]pyridine-3-carboxamide]
+++ (“+++” means <3 uM)	CCOc1cc(C)cc(-c2ccc(C(=O)NS(=O)(=O)c3cccnc3N)c(Oc3c(C)cc(C)cc3C)n2)n1 [Compound 1795, N-[(2-amino-3-pyridyl)sulfonyl]-6-(6-ethoxy-4-methyl-2-pyridyl)-2-(2,4,6-trimethylphenoxy)pyridine-3-carboxamide]
+++ (“+++” means <3 uM)	CC1CN(c2ncccc2C(=O)NS(=O)(=O)c2cccc(Nc3cc(F)c(F)cc3F)n2)C(C)(C)C1 (stereo not shown) [Compound 1796, N—[[6-(2,4,5-trifluoroanilino)-2-pyridyl]sulfonyl]-2-(2,2,4-trimethylpyrrolidin-1-yl)pyridine-3-carboxamide]
+++ (“+++” means <3 uM)	Cc1cccc(C)c1Oc1nc(-c2cc(F)cc(OCC(C)CO)c2)ccc1C(=O)NS(=O)(=O)c1cccc(N)n1 (stereo not shown) [Compound 1797, N-[(6-amino-2-pyridyl)sulfonyl]-2-(2,6-dimethylphenoxy)-6-[3-fluoro-5-(3-hydroxy-2-methyl-propoxy)phenyl]pyridine-3-carboxamide]
+++ (“+++” means <3 uM)	CC1CN(c2ncccc2C(=O)NS(=O)(=O)c2cccc(OCc3ccccc3F)n2)C(C)(C)C1 (stereo not shown) [Compound 1798, N—[[6-[(2-fluorophenyl)methoxy]-2-pyridyl]sulfonyl]-2-(2,2,4-trimethylpyrrolidin-1-yl)pyridine-3-carboxamide]
+++ (“+++” means <3 uM)	C[C@@H]1CN(c2nc(-c3ccc(C(F)(F)F)cc3)ccc2C(=O)NS(=O)(=O)c2ccc[nH]c2=O)C(C)(C)C1 [Compound 1799, N-[(2-oxo-1H-pyridin-3-yl)sulfonyl]-6-[4-(trifluoromethyl)phenyl]-2-[(4S)-2,2,4-trimethylpyrrolidin-1-yl]pyridine-3-carboxamide]
+++ (“+++” means <3 uM)	CC1CN(c2ncccc2C(=O)NS(=O)(=O)c2cccc(OCCC3CCCCC3)n2)C(C)(C)C1 (stereo not shown) [Compound 1800, N—[[6-(2-cyclohexylethoxy)-2-pyridyl]sulfonyl]-2-(2,2,4-trimethylpyrrolidin-1-yl)pyridine-3-carboxamide]
+++ (“+++” means <3 uM)	COc1c(F)cc(-c2ccc(C(=O)NS(=O)(=O)c3ccc[nH]c3=O)c(N3C[C@@H](C)CC3(C)C)n2)cc1F [Compound 1801, 6-(3,5-difluoro-4-methoxy-phenyl)-N-[(2-oxo-1H-pyridin-3-yl)sulfonyl]-2-[(4S)-2,2,4-trimethylpyrrolidin-1-yl]pyridine-3-carboxamide]
+++ (“+++” means <3 uM)	CCOc1cccc(-c2ccc(C(=O)NS(=O)(=O)c3ccc[nH]c3=O)c(N3C[C@@H](C)CC3(C)C)n2)c1F [Compound 1802, 6-(3-ethoxy-2-fluoro-phenyl)-N-[(2-oxo-1H-pyridin-3-yl)sulfonyl]-2-[(4S)-2,2,4-trimethylpyrrolidin-1-yl]pyridine-3-carboxamide]
+++ (“+++” means <3 uM)	C[C@@H]1CN(c2nc(-c3ccc4ccccc4c3)ccc2C(=O)NS(=O)(=O)c2ccc[nH]c2=O)C(C)(C)C1 [Compound 1803, 6-(2-naphthyl)-N-[(2-oxo-1H-pyridin-3-yl)sulfonyl]-2-[(4S)-2,2,4-trimethylpyrrolidin-1-yl]pyridine-3-carboxamide]
+++ (“+++” means <3 uM)	CC1CN(c2ncc(-c3cccc(OC(C)C)c3)cc2C(=O)NS(=O)(=O)c2cccc(N)n2)C(C)(C)C1 (stereo not shown) [Compound 1804, N-[(6-amino-2-pyridyl)sulfonyl]-5-(3-isopropoxyphenyl)-2-(2,2,4-trimethylpyrrolidin-1-yl)pyridine-3-carboxamide]
++ (“++” means between 3 uM and 10 uM)	COCC1CCCN(c2cccc(S(=O)(=O)NC(=O)c3cccnc3N3CC(C)CC3(C)C)n2)C1 (stereo not shown) [Compound 1805, N—[[6-[3-(methoxymethyl)-1-piperidyl]-2-pyridyl]sulfonyl]-2-(2,2,4-trimethylpyrrolidin-1-yl)pyridine-3-carboxamide]
+++ (“+++” means <3 uM)	CC1CN(c2ncccc2C(=O)NS(=O)(=O)c2cccc(Oc3ccc(Cl)cc3Cl)n2)C(C)(C)C1 (stereo not shown) [Compound 1806, N—[[6-(2,4-dichlorophenoxy)-2-pyridyl]sulfnyl]-2-(2,2,4-trimethylpyrrolidin-1-yl)pyridine-3-carboxamide]
+++ (“+++” means <3 uM)	C[C@@H]1CN(c2nc(-c3ccc(F)cc3)ccc2C(=O)NS(=O)(=O)c2ccc[nH]c2=O)C(C)(C)C1 [Compound 1807, 6-(4-fluorophenyl)-N-[(2-oxo-1H-pyridin-3-yl)sulfonyl]-2-[(4S)-2,2,4-trimethylpyrrolidin-1-yl]pyridine-3-carboxamide]
+++ (“+++” means <3 uM)	CCOc1cc(F)ccc1-c1ccc(C(=O)NS(=O)(=O)c2cccnc2N)c(N2C[C@@H](C)CC2(C)C)n1 [Compound 1808, N-[(2-amino-3-pyridyl)sulfonyl]-6-(2-ethoxy-4-fluoro-phenyl)-2-[(4S)-2,2,4-trimethylpyrrolidin-1-yl]pyridine-3-carboxamide]
+++ (“+++” means <3 uM)	CC1CN(c2ncc(-c3ccc(C(C)C)cc3)cc2C(=O)NS(=O)(=O)c2cccc(N)n2)C(C)(C)C1 (stereo not shown) [Compound 1809]
+++ (“+++” means <3 uM)	CC1CN(c2nc(OC(C)C(C)C)c(F)cc2C(=O)NS(=O)(=O)c2cccc(N)n2)C(C)(C)C1 (stereo not shown) [Compound 1810, N-[(6-amino-2-pyridyl)sulfonyl]-6-(1,2-dimethylpropoxy)-5-fluoro-2-(2,2,4-trimethylpyrrolidin-1-yl)pyridine-3-carboxamide]
+++ (“+++” means <3 uM)	Cc1ccc(-c2ccc(C(=O)NS(=O)(=O)c3ccc[nH]c3=O)c(N3C[C@@H](C)CC3(C)C)n2)c2ccccc12 [Compound 1811, 6-(4-methyl-1-naphthyl)-N-[(2-oxo-1H-pyridin-3-yl)sulfonyl]-2-[(4S)-2,2,4-trimethylpyrrolidin-1-yl]pyridine-3-carboxamide]
++ (“++” means between 3 uM and 10 uM)	CCOCCOCCOc1cc(-c2ccc(C(=O)NS(=O)(=O)c3cccc(N)n3)c(N3C[C@@H](C)CC3(C)C)n2)cc(C)n1 [Compound 1812, N-[(6-amino-2-pyridyl)sulfonyl]-6-[2-[2-(2-ethoxyethoxy)ethoxy]-6-methyl-4-pyridyl]-2-[(4S)-2,2,4-trimethylpyrrolidin-1-yl]pyridine-3-carboxamide]
+++ (“+++” means <3 uM)	CC1CN(c2ncccc2C(=O)NS(=O)(=O)c2cccc(Oc3ccc(F)cc3)n2)C(C)(C)C1 (stereo not shown) [Compound 1813, N—[[6-(4-fluorophenoxy)-2-pyridyl]sulfonyl]-2-(2,2,4-trimethylpyrrolidin-1-yl)pyridine-3-carboxamide]

SMILES	EC30
CC(C)COc1cc(F)cc(-c2ccc(C(=O)NS(=O)(=O)c3cccc(N)n3)c(N3CC(C(F)(F)F)CC3(C)C)n2)c1 (stereo not shown) [Compound 1788, N-[(6-amino-2-pyridyl)sulfonyl]-2-[2,2-dimethyl-4-(trifluoromethyl)pyrrolidin-1-yl]-6-(3-fluoro-5-isobutoxy-phenyl)pyridine-3-carboxamide]	+++ (“+++” means <3 uM)
CC(C)COc1cc(F)cc(-c2ccc(C(=O)NS(=O)(=O)N3CC4C[C@H]3CO4)c(N3C[C@@H](C)CC3(C)C)n2)c1 [Compound 1789, 6-(3-fluoro-5-isobutoxy-phenyl)-N—[[(4S)-2-oxa-5-azabicyclo[2.2.1]heptan-5-yl]sulfonyl]-2-[(4S)-2,2,4-trimethylpyrrolidin-1-yl]pyridine-3-carboxamide]	+++ (“+++” means <3 uM)
